The text below walks through data of patent publication US20210161915A1, “GABA-A ANTAGONISTS FOR TREATING SUBSTANCE […]” (ASARINA PHARMA APS, priority 2018, published 2021).

The structures appear in SMILES notation. Entries after “also recorded” stand apart in the source; their conditions may differ. Read-outs that look alike come from different tables or passages of the source.

Experiment [1] has as its target T1, human alpha1,beta2,gamma2 Long GABAA receptor subtype (Homo sapiens, UniProt P14867+P47870).
T1 construct: expressed in transfected cells; host or cells: HEK-293
As to the kind of experiment: Patch-clamp (Dynaflow system) current response in HEK-293 cells transfected with alpha1,beta2,gamma2 Long GABAA receptor. The class given is cell-based. The protocol: (§1) In these tests the protocol was optimized to be similar to the physiological conditions in the synaptic cleft.
(§2) Cell culture: HEK-293 cells, permanently transfected with the human alpha1,beta,gamma and alpha4,beta,delta GABAA receptor subtypes, were seeded at a density of 3×10^4/25 cm^2 in a culture flask. The transfected cells were used for patch-clamp experiments 3 days after seeding. When using the cells for patch-clamp experiments the cells were washed twice with oxygen-bubbled extra cellular (EC) solution (see below). About 5 mL EC was then added and the cells were kept in the incubator for about 15 minutes. After 15 minutes the cells came loose from the bottom of the flask and were separated by carefully sucking a couple of times with a Pasteur pipette.
(§3) Dynaflow™ system with Resolve chip was used for patch-clamp experiments: The electrophysiological recordings from HEK-293 cells were performed under voltage-clamp conditions using patch-clamp technique and the Dynaflow™ system (Dynaflow Pro II Platform Zeiss Axiovert 25; Cellectricon AB, Sweden) with Resolve chips as application system.
(§4) Patch pipettes were pulled from borosilicate glass and polished to a resistance 2-5 MΩ when filled with suitable intracellular solution (IC) (pH was adjusted to 7.2) and immersed in bath solution (extracellular, EC) (pH is adjusted to 7.4).
(§5) The recordings were made using an Axopatch 200B amplifier, a Digidata 1322A (Axon instruments, Foster city, USA). Data were analysed using the pCLAMP software sampled at 10 kHz, filtered at 2-10 kHz and analyzed with Clampfit (versions 9.0, both from Axon instruments, Foster city, USA). No higher series resistance than 20 MΩ between pipette and cell membrane was accepted. No series resistance compensation was used. The stability of series resistance was monitored repeatedly from the time course of capacitative transients during the experiments. The measured liquid-junction potential between EC and IC was subtracted in all data presented. All experiments were performed at room temperature (21-23° C.).
(§6) All steroids were dissolved to the concentration of 6 mM in DMSO. […] End solutions were the solutions added into the wells of the chip.
(§7) Electrophysiology: After compensating for the liquid junction potential a steady holding potential of −17 mV was used in all experiments. […] By using the holding potential of −17 mV and the intracellular solution with low chloride ion concentration the chloride ions flux into the cell when the receptors were activated.
The Dynaflow system allowed application of solutions for as short as 40 ms up to minutes in time.
In the experiments, THDOC and 3alpha-OH-adiol were used as the positive GABAA receptor modulating steroids.
(§8) Different incubation times were studied to achieve the optimal time for attaining stable results and minimize the washout time.
Study design: Studies were conducted on current response mediated by chloride ion flux through the GABAA receptor. […] The same patch-clamp technique was used as described above (Example 1) using the Dynaflow™ application system. THDOC was used as positive GABAA receptor modulating steroid as it has shorter washout time compared to allopregnanolone but works with the same mechanisms on the same GABAA receptor binding site as allopregnanolone.
HEK-293 cells, permanently transfected with cDNA expressing the human alpha1,beta2,gamma2 Long GABAA receptor subtype. The tissue culture and the handling of the cells were as described in Example 1. In the patch-clamp experiments the transfected cells were used minimum two passages after defrosting and 3 days after seeding. The cells were seeded for maximal 25 times.
Background: Patch clamp records ionic current or voltage across a cell membrane.

The target in experiment [2] is T2, human alpha4,beta,delta GABAA receptor subtype (Homo sapiens, UniProt P28472+P48169).
T2 construct: expressed in transfected cells; host or cells: HEK-293
As to the kind of experiment: Patch-clamp (Dynaflow system) current response in HEK-293 cells transfected with alpha4,beta3,delta GABAA receptor. In kind it is cell-based. The protocol: as §1, §2, §3, §4, §5, §6, §7
The Dynaflow system allowed application of solutions for as short as 40 ms up to minutes in time. […] There was no difference in response between the second and the third GABA application. Therefore, the first GABA application was always repeated twice and the second response was used in the analysis.
Washout: GABA is quite soluble in water and easy to washout from the receptor. […] Steroids on the other hand were difficult to dissolve in water and also difficult to washout from the receptor. In the experiments, THDOC and 3alpha-OH-adiol were used as the positive GABAA receptor modulating steroids. With 2 minutes washout time, 200 nM THDOC and 3alpha-OH-adiol was completely washed out as shown by neither an accumulative nor a desensitization effect.
as §8

In a further experiment the test system is female Wistar rats. As to the kind of experiment: Allopregnanolone-induced loss of righting reflex (LoR) test. As to conditions: for Animals (%) not showing LoR after allopregnanolone injection: allopregnanolone 2 mg/kg i.v. In kind it is in vivo, rat. The protocol:
The compound by 3beta-fluor-5alpha-pregnan-20-one (UC2016) was analyzed for antagonism of the allopregnanolone-induced loss of righting reflex (LoR) in female Wistar rats.
Study design: Allopregnanolone was dissolved 2 mg/ml in 10% 2-hydroxy-beta-cyclodextrin (beta-CD), with the use of ultra sound. 3beta-fluor-5alpha-pregnan-20-one (UC2016) dissolved in MCT (10 mg/ml) was injected s.c. 30 and 60 minutes before i.v. 2 mg/kg allopregnanolone. UC2016, in different concentrations (1-20 mg/kg) were given s.c. 30 or 60 minutes before the acute i.v. allopregnanolone-induced LoR. To study if MCT oil alone interferes with the acute i.v. allopregnanolone-induced LoR, MCT oil was given s.c. 30 or 60 min before the allopregnanolone injection. Doses given were from 1 mg/kg to 20 mg/kg UC2016 s.c.
Animals: Female Wistar rats (n=12) from Taconics, Denmark were used. At arrival rats weighted 250 g. For identification the rats were marked with numbers on their tail with a permanent marker. The animals were housed four in each cage for 6 weeks and thereafter two in each cage at the Umea Centre for Comparative Biology (UCCB) animal facility at Umea University, where also all experiments took place. Housing room temperature was kept at 22-23° C. Lights on and off were monitored 12/12 h light/dark; lights on at 06.00 and off at 18.00. Food and water was available ad libitum. The study protocol was approved by the Regional Ethics Committee of Umeå, Sweden.
Handling: To avoid stress during the experimental session, animals were daily handled the week before testing. Handling included moments used during the test, i.e. holding, tail warming in water, and wrapping in op-blanket.
Solutions: Allopregnanolone (Umecrine AB, batch L00019654), was dissolved in 10% or 30% 2-hydroxypropyl-β-cyclodextrin (HPβ-CD; Sigma, H-107) with the use of ultra sound. MCT oil and Solution of UC2016; 10 mg/ml in MCT oil, were provided by XSpray Microparticles AB (Stockholm).
Allopregnanolone-induced loss of righting reflex (LoR) test: During testing, the rat was weighted, the tail was warmed in water (43° C.) for three minutes, and the rat was wrapped in an op-blanket and hold for injection. The test solution was injected i.v. in one of the tail veins during 30 s (optimal injection rate for allopregnanolone, 4 mg/kg/min, Zhu et al 2001), and the needle then kept in place for additional 30 s. The time point for the end of the actual injection was noted. The rat was then placed in a separate cage and LoR was tested by laying the rat on the right side. Rats with LoR stayed on side, and the time until righting was followed. Rats with no LoR could not be placed on side, as the righting reflex immediate corrected the orientation of the body so that the rat was standing on its paws. The effects of the different injections were followed by the two evaluators for approximately 10 min, and the rat was then taken back to its home cage. LoR is an early event at anesthesia, and this fact is used in the test. Allopregnanolone is a strong anesthetic substance, an agonist at the GABAA receptor, and LoR is in the test induced during the 30 seconds with the injection of the substance. At tests of possible allopregnanolone antagonists, the antagonistic effect is thus observed immediately after the injection, i.e. when the rat is placed in the test cage.

T1 sequence (P14867 28-456): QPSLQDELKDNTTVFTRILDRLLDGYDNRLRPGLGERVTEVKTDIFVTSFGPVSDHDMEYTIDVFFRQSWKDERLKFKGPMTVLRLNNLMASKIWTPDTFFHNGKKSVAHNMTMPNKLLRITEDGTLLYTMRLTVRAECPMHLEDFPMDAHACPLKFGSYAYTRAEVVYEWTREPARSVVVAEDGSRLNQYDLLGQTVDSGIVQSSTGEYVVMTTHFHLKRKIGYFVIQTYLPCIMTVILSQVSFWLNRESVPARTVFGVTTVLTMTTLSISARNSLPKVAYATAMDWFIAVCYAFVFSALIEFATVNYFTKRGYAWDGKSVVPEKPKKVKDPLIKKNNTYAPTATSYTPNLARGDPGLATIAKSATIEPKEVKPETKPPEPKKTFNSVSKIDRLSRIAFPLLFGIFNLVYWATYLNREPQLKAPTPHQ
T1 sequence (P47870 25-512 limits assumed): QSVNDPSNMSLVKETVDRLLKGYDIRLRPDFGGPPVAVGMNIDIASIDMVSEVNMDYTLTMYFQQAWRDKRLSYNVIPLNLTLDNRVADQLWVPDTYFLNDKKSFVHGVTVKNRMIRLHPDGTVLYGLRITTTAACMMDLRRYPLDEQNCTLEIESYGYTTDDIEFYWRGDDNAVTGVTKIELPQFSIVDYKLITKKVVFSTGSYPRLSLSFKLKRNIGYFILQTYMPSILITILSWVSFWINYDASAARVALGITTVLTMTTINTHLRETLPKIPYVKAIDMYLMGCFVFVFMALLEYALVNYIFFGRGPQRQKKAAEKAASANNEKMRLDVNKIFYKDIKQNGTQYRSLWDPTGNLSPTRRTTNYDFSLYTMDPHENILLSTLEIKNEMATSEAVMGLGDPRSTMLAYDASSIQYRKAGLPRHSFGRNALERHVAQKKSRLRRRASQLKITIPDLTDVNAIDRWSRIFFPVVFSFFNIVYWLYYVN
T1 sequence (P18507 40-475 partner): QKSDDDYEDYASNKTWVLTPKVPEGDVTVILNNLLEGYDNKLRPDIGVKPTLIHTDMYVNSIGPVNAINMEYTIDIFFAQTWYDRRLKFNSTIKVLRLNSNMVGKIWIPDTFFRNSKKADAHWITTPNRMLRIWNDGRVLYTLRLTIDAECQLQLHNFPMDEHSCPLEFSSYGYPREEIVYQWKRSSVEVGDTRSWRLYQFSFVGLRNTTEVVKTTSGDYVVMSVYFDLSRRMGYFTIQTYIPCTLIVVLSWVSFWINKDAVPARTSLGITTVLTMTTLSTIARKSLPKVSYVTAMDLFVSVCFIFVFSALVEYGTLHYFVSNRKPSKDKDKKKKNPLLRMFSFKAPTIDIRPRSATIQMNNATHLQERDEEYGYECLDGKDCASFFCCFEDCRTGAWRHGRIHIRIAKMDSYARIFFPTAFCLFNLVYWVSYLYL
T2 sequence (P48169 36-554): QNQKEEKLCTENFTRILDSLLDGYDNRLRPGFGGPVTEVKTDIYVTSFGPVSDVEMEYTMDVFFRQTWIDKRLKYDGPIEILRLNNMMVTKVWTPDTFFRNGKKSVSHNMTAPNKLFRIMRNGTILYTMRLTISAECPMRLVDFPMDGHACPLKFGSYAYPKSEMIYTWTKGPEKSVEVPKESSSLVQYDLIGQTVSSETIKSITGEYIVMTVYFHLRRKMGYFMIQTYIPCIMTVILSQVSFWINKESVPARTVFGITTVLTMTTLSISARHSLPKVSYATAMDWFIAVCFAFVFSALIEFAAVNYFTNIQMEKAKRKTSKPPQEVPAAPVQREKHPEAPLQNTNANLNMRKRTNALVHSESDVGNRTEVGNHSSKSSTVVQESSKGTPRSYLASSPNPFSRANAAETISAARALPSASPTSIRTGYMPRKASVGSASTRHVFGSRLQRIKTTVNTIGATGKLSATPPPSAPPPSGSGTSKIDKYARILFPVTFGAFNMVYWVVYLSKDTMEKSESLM
T2 sequence (P28472 26-473): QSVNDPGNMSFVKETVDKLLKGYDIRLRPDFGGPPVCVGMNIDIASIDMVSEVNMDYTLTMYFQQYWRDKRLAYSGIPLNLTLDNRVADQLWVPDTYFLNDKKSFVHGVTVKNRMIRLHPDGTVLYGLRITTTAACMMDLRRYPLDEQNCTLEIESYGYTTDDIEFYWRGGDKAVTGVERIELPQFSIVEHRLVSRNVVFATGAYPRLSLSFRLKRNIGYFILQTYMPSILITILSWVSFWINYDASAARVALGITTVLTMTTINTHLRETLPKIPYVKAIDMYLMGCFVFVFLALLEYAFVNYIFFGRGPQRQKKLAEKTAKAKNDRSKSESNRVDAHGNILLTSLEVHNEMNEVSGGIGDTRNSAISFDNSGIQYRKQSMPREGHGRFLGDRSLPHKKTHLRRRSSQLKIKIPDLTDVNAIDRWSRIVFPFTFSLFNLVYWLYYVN
T2 sequence (O14764 17-452 partner limits assumed): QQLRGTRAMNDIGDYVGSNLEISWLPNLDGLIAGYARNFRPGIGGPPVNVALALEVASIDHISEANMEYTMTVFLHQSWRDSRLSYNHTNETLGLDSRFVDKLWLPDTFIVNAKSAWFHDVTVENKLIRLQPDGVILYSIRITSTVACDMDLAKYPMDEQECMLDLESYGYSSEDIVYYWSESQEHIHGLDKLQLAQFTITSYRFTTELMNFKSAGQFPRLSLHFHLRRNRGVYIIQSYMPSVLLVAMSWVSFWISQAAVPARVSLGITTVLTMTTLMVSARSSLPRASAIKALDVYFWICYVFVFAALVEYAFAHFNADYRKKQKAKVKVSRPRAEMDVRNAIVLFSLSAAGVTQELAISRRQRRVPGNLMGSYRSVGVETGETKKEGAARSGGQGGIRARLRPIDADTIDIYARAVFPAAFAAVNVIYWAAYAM

Regarding `C[C@]12CC[C@@H](O)C[C@@H]1CC[C@@H]1[C@@H]2CC[C@]2(C)C(O)CC[C@@H]12` (stereo partly drawn) [Androstanediol, 3alpha-hydroxy-5alpha-androstan-17-ol, reference compound], the concentration giving a half-maximal response (EC50) (as a rule, the concentration giving half of the maximal effect) in experiment [1] was 3400 nM; in experiment [2] it was 380 nM. Also, the “Androstanediol effect without GABA” value in experiment [1] (data not shown) is on record as “no effect without GABA”. Further, the “Baseline shift, current response in absence of GABA, Mean ± SEM pA” value was “+8 ± 3.6 pA” in experiment [2] (3 μM Androstanediol) and “+13 ± 4.8 pA” in experiment [2] (10 μM Androstanediol).
On to `CC(=O)[C@H]1CC[C@H]2[C@@H]3CC[C@H]4C[C@@H](F)CC[C@]4(C)[C@H]3CC[C@]12C` [UC2016, 3beta-fluor-5alpha-pregnan-20-one], for which the entries for the “[UC2016] + 30 μM GABA + 200 nM THDOC, Mean ± SEM (%)” value in experiment [1] (0.1 μM UC2016), in experiment [1] (0.3 μM UC2016) and in experiment [1] (1 μM UC2016) were −4.7 ± 3.5%, −11.6 ± 5.5% and −25.1 ± 3.5%, respectively. Moreover, the “Imax/Emax, effect on GABA response” value in experiment [1] (1 μM UC2016 + 30 μM GABA) was −8.6 ± 1.7%. Also, the “Effect of compound alone (baseline shift)” value in experiment [1] (1 μM UC2016, absence of GABA) was “no effect on baseline shift; also recorded: UC2016 had no effect in absence of GABA”. Moreover, in the experiment with female Wistar rats (1 mg/kg s.c., 60 min before allopregnanolone), the “Antagonism of allopregnanolone induction of LoR” value is listed as “clearly antagonized”. For the same compound, the “Inhibition of LoR induction by allopregnanolone” value with female Wistar rats (5 mg/kg s.c., 30 minutes before allopregnanolone) is “not”; in the experiment with female Wistar rats (5 mg/kg s.c., 60 minutes before allopregnanolone) it was “had an inhibitory effect”; in the experiment on female Wistar rats (10 mg/kg or higher s.c., 30 min before allopregnanolone), “inhibited LoR induction”. The “Animals (%) not showing LoR after allopregnanolone injection” value was determined as 100% in the experiment on female Wistar rats (UC2016 1 mg/kg s.c. in MCT oil), 80% with female Wistar rats (UC2016 2 mg/kg s.c. in MCT oil), 100% in the experiment on female Wistar rats (UC2016 10 mg/kg s.c. in MCT oil) and 100% with female Wistar rats (UC2016 20 mg/kg s.c. in MCT oil).
`C[C@]12CC[C@@H](O)C[C@H]1CC[C@@H]1[C@@H]2CC[C@]2(C)[C@@H](C(=O)CO)CC[C@@H]12` [THDOC, Tetrahydrodeoxycorticosterone, reference compound]: the Imax/Emax result in experiment [1] (0.03-1 μM THDOC + 30 μM GABA) is “+115%”. Further, in experiment [1] (without GABA), the “THDOC induced tonic effect (baseline shift)” value is given as “did not induce any baseline shift”. For the same compound, the “Emax, enhancement of GABA mediated current response” value in experiment [2] came out at 297%. Further, the half-maximal effective concentration (EC50) in experiment [2] (read-out: EC50, enhancement of GABA mediated current response) was found to be 47 nM. The “THDOC induced baseline shift” value in experiment [2] (without GABA, data not shown) was “induces a baseline shift”.
On to `CC(=O)[C@H]1CC[C@H]2[C@@H]3CC[C@H]4C[C@H](O)CC[C@]4(C)[C@H]3CC[C@]12C` [Allopregnanolone, allopregnanolone, reference compound], for which the “Induction of LoR” value with female Wistar rats (allopregnanolone 2 mg/kg i.v. alone) is on record as “induces LoR in all female Wistar rats”.
